Results: US20160137746A1, “METHODS FOR TREATING HIGH CARDIOVASCULAR RISK PATIENTS WITH HYPERCHOLESTEROLEMIA” (Sanofi Biotechnology, priority 2014, published 2016)

Columns and labels:
[1] = tested on: high cardiovascular risk patients with hypercholesterolemia; assay: ODYSSEY COMBO II: safety (TEAEs, adjudicated CV events, laboratory parameters, low LDL-C)
Description: (§1) Safety assessments during both studies were as follows. Safety was assessed through adverse event (AE) reporting (including adjudicated cardiovascular events), laboratory analyses, and vital signs measurement. Since the LDL-C-lowering effects of PCSK9 inhibition on top of a statin are unknown, a number of AEs were defined as being of special interest and were monitored, including alanine aminotransferase abnormalities, allergic events, hemolytic anemia, pregnancy, overdose with study drug, neurologic events, ophthalmic events, and local injection site reactions.
(§2) Safety Analyses were as follows. AEs (including adjudicated cardiovascular events), laboratory parameters, and vital signs were reported descriptively, based on the safety population (all randomized patients who received at least 1 dose or partial dose of study treatment). The safety analysis focused on the treatment-emergent AE period defined as the time from the first double-blind dose to the last double-blind dose of the investigational product +70 days (10 weeks).
(§3) The safety population included all randomized patients who received at least one dose or part of a dose of the double-blind IMP.
(§4) Safety analyses were descriptive, performed on the safety population according to treatment actually received. For analysis of TEAE and PCSA, the safety analysis focused on the TEAE period defined as the time from the first dose of double-blind IMP administration (capsule or injection, whichever comes first) up to 70 days after the last double-blind injection.

[2] = tested on: high cardiovascular risk patients with hypercholesterolemia; conditions: human, in vivo, 52 weeks
Description: as §1, §2, §3, §4

[3] = tested on: high cardiovascular risk patients with hypercholesterolemia; assay: ODYSSEY COMBO II: lipid efficacy of alirocumab vs ezetimibe, add-on to maximally tolerated statin; assay type: in vivo, human; conditions: for Calculated LDL-C percent change from baseline, LS mean (SE): ITT population, MMRM, alirocumab 75 Q2W/Up150 Q2W, ezetimibe 10
From the text: Each of the COMBO studies was randomized, double-blinded, and placebo-controlled.
The primary efficacy endpoint for each study was the difference between treatment arms in the percent change in LDL-C from baseline to Week 24.
Apo, apolipoprotein; HDL-C, high-density lipoprotein cholesterol; ITT, intent-to-treat; LDL-C, low-density lipoprotein cholesterol; Lp(a), lipoprotein (a); TG, triglycerides.
COMBO II was a Phase 3, randomized, double-blind, active-controlled, parallel-group, multinational 104-week study. The study enrolled high-risk patients with uncontrolled hypercholesterolemia on stable, maximally tolerated daily statin therapy. Unlike COMBO I, with a placebo arm, COMBO II incorporated an active-treatment arm (ezetimibe) with double-dummy design (FIG. 1B) and patients were not allowed to receive any other lipid lowering therapies besides statin and their randomized treatment.
After randomization, patients entered a double-blind, double-dummy treatment period of 104 weeks.
Primary analyses of efficacy endpoints were conducted using an ITT approach (based on the ITT population defined above), including all lipid data, regardless of whether the patient was continuing therapy or not. This corresponds to ITT estimands, defined for primary and key secondary endpoints. In addition, analyses were also conducted using an on-treatment approach (based on the mITT population defined above), including lipid data collected during the efficacy treatment period. This corresponds to on-treatment estimands of key secondary endpoints.
With regards to the primary efficacy analysis (ITT approach), the percent change in calculated LDL-C from baseline to Week 24 was analyzed using a mixed-effect model with repeated measures (MMRM) approach.

[4] = safety population at 52 weeks, all patients, number (%) of patients
[5] = treatment period, safety population

## O=C1[C@H](CC[C@H](O)c2ccc(F)cc2)[C@@H](c2ccc(O)cc2)N1c1ccc(F)cc1 [Ezetimibe, ezetimibe, reference compound]
[1]; in vivo
  Adjudicated cardiovascular events: 3.7%
  SOC gastrointestinal disorders: 13.7%
  SOC infections and infestations: 25.3%
  SOC musculoskeletal and connective tissue disorders: 17.0%
  Treatment-emergent local injection site reactions: 0.8%
[1]; mean 58 weeks' follow-up
  Patients who experienced at least one TEAE: 67.2%
  Serious adverse event: 17.8%
  TEAE leading to death: 4 (1.7%) n (%)
  TEAEs leading to treatment discontinuation: 5.4%
[1]; [4]
  Laboratory parameters: Blood glucose increased: 3 (1.2)
  Laboratory parameters: Hemoglobin decreased: 2 (0.8)
  Patients experiencing any TEAE: 162 (67.2)
  TEAE preferred term: Accidental overdose: 16 (6.6)
  TEAE preferred term: Angina pectoris: 11 (4.6)
  TEAE preferred term: Arthralgia: 9 (3.7)
  TEAE preferred term: Dizziness: 13 (5.4)
  TEAE preferred term: Headache: 10 (4.1)
  TEAE preferred term: Hypertension: 10 (4.1)
  TEAE preferred term: Myalgia: 12 (5.0)
  TEAE preferred term: Nasopharyngitis: 9 (3.7)
  TEAE preferred term: Upper respiratory tract infection: 14 (5.8)
  TEAE system organ class: Blood and lymphatic system disorders: 8 (3.3)
  TEAE system organ class: Cardiac disorders: 29 (12.0)
  TEAE system organ class: Eye disorders: 9 (3.7)
  TEAE system organ class: Gastrointestinal disorders: 33 (13.7)
  TEAE system organ class: General disorders and administration site conditions: 26 (10.8)
  TEAE system organ class: Infections and infestations: 61 (25.3)
  TEAE system organ class: Injury, poisoning, and procedural complications: 33 (13.7)
  TEAE system organ class: Investigations: 21 (8.7)
  TEAE system organ class: Metabolism and nutrition disorders: 18 (7.5)
  TEAE system organ class: Musculoskeletal and connective tissue disorders: 41 (17.0)
  TEAE system organ class: Neoplasms, benign, malignant and unspecified (including cysts and polyps): 7 (2.9)
  TEAE system organ class: Nervous system disorders: 40 (16.6)
  TEAE system organ class: Psychiatric disorders: 12 (5.0)
  TEAE system organ class: Renal and urinary disorders: 13 (5.4)
  TEAE system organ class: Reproductive system and breast disorders: 2 (0.8)
  TEAE system organ class: Respiratory, thoracic, and mediastinal disorders: 22 (9.1)
  TEAE system organ class: Skin and subcutaneous tissue disorders: 15 (6.2)
  TEAE system organ class: Vascular disorders: 20 (8.3)
[1]; [5]
  Patients with 2 consecutive calculated LDL-C value <15 mg/dL: 0/230
  Patients with 2 consecutive calculated LDL-C value <25 mg/dL: 0/230
[1]; treatment period, safety population, listed as ezetimibe
  Patients with 2 consecutive calculated LDL-C value <25 mg/dL: none
[2]
  TEAE preferred term: Influenza: 7 (2.9)
[3]; 24 weeks, FIG. 7
  Achieved LDL-C, median: 70 mg/dL
[3]; ITT, Week 24
  Calculated LDL-C, LS mean (SE) percent change from baseline: −20.7 (1.9) %
  Fasting TGs, LS mean percent change from baseline: −12.8%
[3]; ITT, Week 24, listed as ezetimibe
  Calculated LDL-C, LS mean (SE) percent change from baseline: −20.7%
[3]; Week 4
  Calculated LDL-C percent change from baseline, LS mean (SE): −25.3 (1.6) %
[3]; Week 8
  Calculated LDL-C percent change from baseline, LS mean (SE): −24.3 (1.7) %
[3]; Week 12
  Calculated LDL-C percent change from baseline, LS mean (SE): −21.8 (1.8) %
[3]; Week 16
  Calculated LDL-C percent change from baseline, LS mean (SE): −23.0 (1.8) %
[3]; Week 24
  Fasting TGs reduced from baseline: 13.3%
  Mean achieved LDL-C: 82.5 (2.0) mg/dL
  Calculated LDL-C percent change from baseline, LS mean (SE): −20.7 (1.9) %
[3]; Week 24, On-treatment analysis
  Apo-B - Percent change from baseline to Week 24, LS mean vs. baseline: −19.1 (1.4)
  Calculated LDL-C - Percent change from baseline to Week 24, LS mean vs. baseline: −21.8 (1.8) %
  Non-HDL-C - Percent change from baseline to Week 24, LS mean vs. baseline: −20.2 (1.6)
[3]; Week 24, on-treatment analysis
  HDL-C percent change from baseline to week 24: 0.8 (1.1)
  Lipoprotein(a) percent change from baseline to week 24: −5.6 (1.9)
  Total cholesterol percent change from baseline to week 24: −15.2 (1.2)
  Triglycerides (fasted) percent change from baseline to week 24: −13.3 (2.0)
[3]; Week 36
  Calculated LDL-C percent change from baseline, LS mean (SE): −19.3 (2.0) %
[3]; Week 52
  Calculated LDL-C percent change from baseline, LS mean (SE): −18.3 (2.1) %
